Measurements: patent publication US9464064B2, “HCV helicase inhibitors and methods of use thereof” (University of Kansas, priority 2011, dated 2016)
Residues, ends and D or L forms follow the SMILES beside them. *: point of attachment. CH2Cl = ClC*

Molecular target: T1, HCV NS3 helicase NS3h_1b(con1) (Hepatitis C virus genotype 1b, UniProt Q9WMX2)
T1 construct: truncated C-terminally His-tagged NS3 proteins lacking the N-terminal protease, called NS3h; His-tag (C); made in house
Assay: MBHA screen of NCI mechanistic set library at 20 μM (percent inhibition, compound interference)
Assay type: biochemical
Conditions: compounds at 20 μM; for Inh. (%) (Inhibition): calculated from Equation 1
Method in brief: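 Molecular beacon-based DNA unwinding assay; compounds screened at 20 μM in triplicate, with DMSO-only negative and 500 nM dT20 positive controls. Fluorescence (ex 643/em 670 nm) was read before and 30 min after adding ATP to 1 mM. Percent inhibition came from the change relative to DMSO controls; interference from pre-ATP fluorescence versus DMSO controls.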

[1] = MBHA with DNA substrate, assay interference calculated with Equation 2
[2] = assay interference calculated with Equation 2 (fluorescence vs DMSO-only controls before ATP)

T1 sequence (Q9WMX2 1192-1657): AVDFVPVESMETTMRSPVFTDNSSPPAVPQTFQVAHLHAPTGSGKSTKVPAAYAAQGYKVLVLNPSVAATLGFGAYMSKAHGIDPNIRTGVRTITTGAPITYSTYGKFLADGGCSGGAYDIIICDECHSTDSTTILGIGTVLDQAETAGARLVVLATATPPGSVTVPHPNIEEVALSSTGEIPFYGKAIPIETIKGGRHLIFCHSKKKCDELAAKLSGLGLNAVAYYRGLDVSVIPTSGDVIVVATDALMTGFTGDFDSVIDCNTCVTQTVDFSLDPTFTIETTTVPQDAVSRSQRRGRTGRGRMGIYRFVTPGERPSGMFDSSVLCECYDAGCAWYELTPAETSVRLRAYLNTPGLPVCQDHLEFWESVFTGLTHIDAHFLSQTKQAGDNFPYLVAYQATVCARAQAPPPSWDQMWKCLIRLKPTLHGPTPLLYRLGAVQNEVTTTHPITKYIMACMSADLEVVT

SMILES | Int.* (Ratio) (Interference) [1] | Inh. (%) (Inhibition) (MBHA with DNA substrate) | Inh. (%) (Inhibition) (MBHA with a DNA substrate) | Int.* (Ratio) (Interference) [2]
CCOC(=O)NC1=C(N2CC2)C(=O)C(NC(=O)OCC)=C(N2CC2)C1=O [Compound 182986] | 1.18 | −16.6 | – | –
COC1=C(N)C(=O)c2nc(-c3nc(C(=O)O)c(C)c(-c4ccc(OC)c(OC)c4O)c3N)ccc2C1=O [Compound 45383] | – | – | −19.1 | 1.05
CC[n+]1c(-c2ccccc2)c2cc(N)ccc2c2ccc(N)cc21.[Br-] [Compound 268986] | 0.81 | 36.0 | – | –
CCN(CC)C(=S)S [Compound 4857] | 1.07 | −8.0 | – | –
Oc1ccc(/C=N/NC(=S)Nc2cccnc2)nc1 [Compound 185065] | – | – | −26.6 | 1.11
CC(C)c1oc(=O)cc2c1[C@@H](O)[C@H]1OC(=O)[C@@]3(C)[C@@H](O)[C@H]4O[C@H]4[C@@]2(C)[C@@H]13 [Compound 211500] | – | – | 10.6 | 0.89
O=[N+]([O-])[O-].O=[N+]([O-])[O-].O=[N+]([O-])[O-].[Ga+3] [Compound 15200] | 0.75 | 53.4 | – | –
COc1cc(OC)c2c(C)cc(=O)oc2c1 [Compound 688795] | – | – | 9.3 | 1.02
COc1ccc(/C=C2\CCc3ccccc3C2=O)cc1OC [Compound 643175] | 0.93 | −17.5 | – | –
NC(=O)C#CC(N)=O [Compound 65381] | 0.96 | 14.1 | – | –
CC(=O)SC(SC(C)=O)SC(C)=O [Compound 637833] | 0.80 | −17.2 | – | –
COC(=O)C1C(O)C(C)C(O)C(C)/C=C\C=C(C)C(=O)Nc2c(C)c(OC(C)=O)c3c(c2O)C(=O)C(C)=C2OCOC(=C23)C(C)=CC(C)(O)C(O)C(C)C1O (centres unmarked) [Compound 19990] | 0.96 | 25.1 | – | –
COC(=O)c1[nH]c(=S)[nH]c(=O)c1-c1ccc(Cl)cc1 [Compound 635140] | 1.04 | 4.6 | – | –
[O-][Cl+3]([O-])([O-])[O-].c1ccc(-c2csc3c4ccccc4c4ccccc4[n+]23)cc1 [Compound 98904] | 0.89 | 41.2 | – | –
CN(C)CCOC1(Cc2ccc(Cl)cc2Cl)CCC(C(C)(C)C)CC1.Cl (centres unmarked) [Compound 670224] | 0.88 | 17.9 | – | –
CCS(=O)(=O)Nc1ccc(Nc2c3ccccc3nc3ccccc23)c(OC)c1.CS(=O)(=O)O [Compound 243928] | 0.87 | 3.4 | – | –
O=[N+]([O-])c1cc(C(F)(F)F)cc([N+](=O)[O-])c1CCl [Compound 622627] | – | – | −26.2 | 1.09
CC1=C(N2CC2)C(=O)c2nc3n(c2C1=O)CCC3OC(=O)CCl (centres unmarked) [Compound 651080] | – | – | −4.4 | 0.85
c1ccc2c(NCCCCCCCCNc3c4ccccc4nc4ccccc34)c3ccccc3nc2c1 [Compound 219734] | 0.26 | 41.8 | – | –
CN(C)C(=S)SSC(=S)N(C)C [Compound 1771] | 0.98 | 0.2 | – | –
CCC1CN2CCc3cc(OC)c(OC)cc3C2CC1CC1c2cc(OC)c(OC)cc2CCN1C(=O)C1CCCN1C(=O)OCc1ccccc1 (centres unmarked) [Compound 103248] | 0.92 | −11.6 | – | –
C[CH2][Ge]([CH2]C)([CH2]C)[O]C(=O)CCC(=O)[O][Ge]([CH2]C)([CH2]C)[CH2]C [Compound 653558] | – | – | −3.1 | 0.98
O=C(/C=C/c1c(O)ccc2ccccc12)c1cccc(O)c1 [Compound 636786] | – | – | 8.8 | 0.91
O=C1Oc2ccccc2C(=O)/C1=C1\C=C(c2ccccc2)SS1 [Compound 293927] | 1.00 | −14.7 | – | –
O=C([O-])c1ccc(Nc2c3ccccc3nc3ccccc23)cc1.[Na+] [Compound 235082] | – | – | −6.4 | 1.02
Cn1c(=O)[nH]c2nncnc2c1=O [Compound 99733] | 1.02 | −17.9 | – | –
Cc1cc(Cl)ccc1N1C(=O)C(=O)C(c2nc3ccccc3o2)C(=O)C1=O [Compound 623051] | 0.92 | −10.9 | – | –
CN1C(Cl)=NS(=O)(=O)c2ccccc21 [Compound 373853] | 0.92 | 5.1 | – | –
C/C(=N\Nc1nc2ccccc2s1)c1ccncn1 [Compound 693632] | – | – | −26.4 | 0.98

Second part, the molecule after the results:

Int.* (Ratio) (Interference) [1] | Inh. (%) (Inhibition) (MBHA with DNA substrate) | Inh. (%) (Inhibition) (MBHA with a DNA substrate) | Int.* (Ratio) (Interference) [2] | SMILES
1.02 | −12.6 | – | – | CCOC(=O)Cc1c(C)c2cc(C(=O)c3ccccc3)c(O)cc2oc1=O [Compound 115538]
– | – | −26.9 | 0.97 | N=C1C=C(N)C(=O)c2[nH]c(=O)ccc21 [Compound 111041]
1.00 | 3.7 | – | – | CSc1ccc(NC(=O)CCl)cc1 [Compound 166464]
0.17 | 138.7 | – | – | Cl.O=C1c2cccc(NCCCNCCO)c2C(=O)c2cccc(NCCCNCCO)c21 [Compound 363998]
0.93 | −18.5 | – | – | CCOC(=O)c1ccc(-c2cc(C)no2)[nH]1 [Compound 693053]
0.85 | 15.7 | – | – | CC(=O)/C(=C\c1cccc([N+](=O)[O-])c1)C(=O)Nc1ccccc1C [Compound 634658]
– | – | −5.0 | 0.96 | O=C1NC(c2cccc3ccccc23)Nc2ccc(Cl)cc21 (centres unmarked) [Compound 175636]
0.95 | 14.3 | – | – | COc1ccc2cccc(C(=N)c3ccc(C)c4c3CCC4)c2c1 [Compound 625590]
1.06 | 5.6 | – | – | O=C1c2ccccc2C(=O)c2c(O)c(O)cc(O)c21 [Compound 10447]
1.11 | −2.6 | – | – | CN(C)CCOC1(Cc2ccc(F)cc2)CCC(C(C)(C)C)CC1.O=C(O)/C=C/C(=O)O (centres unmarked) [Compound 670226]
– | – | 9.4 | 0.98 | C=C1CC[C@@H]2[C@](C)(CO)[C@H](O)CC[C@@]2(C)[C@@H]1C/C=C1/C(=O)OC[C@H]1O [Compound 383468]
0.94 | 17.3 | – | – | Cc1ccccc1NC(=O)C(=O)C(c1cnc2ccc([N+](=O)[O-])cc2n1)[N+](=O)[O-] (centres unmarked) [Compound 644735]
– | – | 10.6 | 0.97 | Nc1ccccc1N [Compound 5354]
0.26 | 105.0 | – | – | Cc1cc(NCCCCCCCNc2cc(C)nc3cc(N)ccc23)c2ccc(N)cc2n1 [Compound 273829]
– | – | −32.9 | 1.09 | Cc1nc(-c2cccnc2)sc1C(=O)/C=C/c1ccc(Cl)cc1Cl [Compound 640580]
1.07 | −14.0 | – | – | Br.COC1CN(C)C(=Nc2cccc3ccccc23)S1 (centres unmarked) [Compound 135996]
0.90 | 0.0 | – | – | COC(=O)C1(C)CCCC2(C)c3cc(OC)ccc3C(=O)C(Br)C12 (centres unmarked) [Compound 169600]
0.99 | 2.5 | – | – | O=C(CC1(O)C(=O)Nc2c(Cl)cc(Cl)cc21)c1cccc2ccccc12 (centres unmarked) [Compound 635328]
0.96 | −9.7 | – | – | CCCCCCCCCCCCCCCCOCC(O)CO (centres unmarked) [Compound 59269]
0.92 | −9.3 | – | – | CCC1CN2CCc3cc(OC)c(OC)cc3C2CC1CC1c2cc(OC)c(OC)cc2CCN1C(=O)C(Cc1c[nH]c2ccccc12)NC(=O)OC(C)(C)C (centres unmarked) [Compound 109350]
1.01 | −9.8 | – | – | O=C(Nc1ccc2c(c1)oc(=O)c1ccccc12)C(Cl)Cl [Compound 65937]
1.11 | −12.0 | – | – | CC(=O)NC(CC(C)C)C(=O)NC(Cc1ccccc1)C(=O)CCl (stereo not drawn) [Compound 173905] (Ac-Leu-Phe-CH2Cl; configuration not given here)
1.12 | −9.4 | – | – | C[C@H](CN1CC(=O)NC(=O)C1)N1CC(=O)NC(=O)C1 [Compound 169779]
1.05 | 23.0 | – | – | Nc1ccccc1C(=O)NC(=O)Nc1ccc(Oc2ncc(Br)cn2)c(Cl)c1 [Compound 639828]
– | – | −5.3 | 1.07 | O=C1C=C(NCCc2ccccc2)c2ccccc2C1=O [Compound 637731]
0.97 | 1.1 | – | – | N#CCCN(CCC#N)c1ccc(/C=C2/N=C(c3cc([N+](=O)[O-])ccc3Cl)OC2=O)cc1 [Compound 637916]
